Reference: article PMC12814185, “Receptor-Mediated Shuttling of a D‑Amino Acid Peptide Achieves High Nanomolar Cytosolic Concentrations” (Journal of the American Chemical Society, 2025)
Where a SMILES comes first, the peptide text is derived from it. Bridges are numbered along the chain shown (N, C = ends). Roman numbers before positions name the chains, in order. Triazole bridges read from a SMILES are 1,4-linked. Where no end group is shown, it is not given here. Side-chain parts run from the residue outwards. [ ]: non-standard residue; d: D form. The star is where a group is joined. X2 = CN1C(=C/C=C/C=C/C2=[N+](CCCCCC(=O)*)c3ccc(S(=O)(=O)[O-])cc3C2(C)C)C(C)(C)c2cc(S(=O)(=O)O)ccc21; X1 = CN1C(=CC=CC=CC2=[N+](CCCCCC(=O)*)c3ccc(S(=O)(=O)[O-])cc3C2(C)C)C(C)(C)c2cc(S(=O)(=O)O)ccc21; Lys(N3) = [N-]=[N+]=NCCCC[C@H](N)C(=O)O; Cit = NC(=O)NCCC[C@H](N)C(=O)O; d(hCys) = N[C@H](CCS)C(=O)O; PEG3 = NCCOCCOCCOCCC(=O)O; Pra = C#CC[C@H](N)C(=O)O

Key:
HEK293_CMKLR1-eYFP cells = assay: Resazurin based cell viability assay, peptides; settings: 72 h incubation
Experimental: page 3: […] 15% FCS. Calcium flux assay Calcium flux assay was performed with cells expressing CMKLR1 and the chimeric G protein […]. The stably transfected COS-7_CMKLR1-eYFP_ […] were seeded at 25,000 cells per well into poly-ᴅ-lysine-coated 96-well plates (black μCLEAR, Greiner). The next day, cells were incubated with […] (Sigma), 20 mM 4-(2-hydroxyethyl)-1-piperazineethanesulfonic acid (HEPES, Sigma) in Hanks' Balanced […] This solution was replaced by assay buffer, and basal Ca2+ signal (λex = 485 nm, λem = 525 nm) was measured for 20 s with a Flexstation 3 plate reader (Molecular Devices). Peptide dilutions were added, and the Ca2+ response was measured for 40 s. The maximum signal over baseline was calculated and normalized to peptide 1 (N3-cC9). Non-linear regression was performed using Prism 10 (GraphPad). Experiments were performed in technical duplicates and at least twice. Cell viability assay HEK293 and HEK293_CMKLR1-eYFP cells were seeded at 15,000 cells per well into poly-ᴅ-lysine coated 96-well plates (black μCLEAR, Greiner). […] Cells were then washed and a resazurin-based cell viability assay was performed. […] (1:1) + 15% FBS without phenol red was added to the cells. […] using the fluorescence of resorufin (λex = 550 nm, λem = 595 nm). Data was normalized to cells incubated without peptide (100%) and cells treated with ethanol for 3 min before resazurin addition (0%). Experiments were performed in technical triplicates and at least twice. Fluorescence microscopy Peptide internalization was evaluated by fluorescence microscopy. […] the cells and incubated for 6 h. […] All shown microscopy images are representative of at least two independent experiments. […] Resazurin based cell viability assay of HEK293 and HEK293_CMKLR1-eYFP cells after 72 h incubation with the p53/MDM2 inhibitor Nutlin-3a. […] 100 50 2Cy 3Cy 4Cy 0 -8 -7 -6 -5 -4 […]], log Figure S4. Resazurin based cell viability assay of HEK293_CMKLR1-eYFP cells after 72 h incubation with the PMIγ peptides discussed in this work. Mean ± SEM from two independent experiments performed in triplicates. 15 […]

MDA-MB-231 cells = assay: Fluorescence correlation spectroscopy (FCS) in the cytosol; format: cell-based; settings: 72 h
Excerpt: Fluorescence correlation spectroscopy (FCS) […] Prior to measurements, the correction collar of the objective […] 1 τ 1 1 (Equation 2) G(τ) = ∗ (1 - […] 1 + ( τ )α √1 + S2 ∗ ( τ )α τD τD 4

[1] = target: T1, NanoLuc-MDM2 in HEK293_CMKLR1-eYFP cells (Homo sapiens, UniProt Q00987); assay: Intracellular Cy5-PMIγ/NanoLuc-MDM2 BRET, cells with CMKLR1; format: cell-based; settings: for displacement from MDM2 by 10 μM nutlin-3a (kinetic BRET): 72 h internalization; for BRET between NanoLuc-MDM2 and Cy5-labeled peptide: CMKLR1-expressing cells, 1 or 10 μM; for receptor-specific BRET under uptake competition: coincubation with 30 μM unlabeled peptide 1
T1 construct: host or cells: HEK293 and HEK293_CMKLR1-eYFP
T1 sequence (Q00987 whole entry): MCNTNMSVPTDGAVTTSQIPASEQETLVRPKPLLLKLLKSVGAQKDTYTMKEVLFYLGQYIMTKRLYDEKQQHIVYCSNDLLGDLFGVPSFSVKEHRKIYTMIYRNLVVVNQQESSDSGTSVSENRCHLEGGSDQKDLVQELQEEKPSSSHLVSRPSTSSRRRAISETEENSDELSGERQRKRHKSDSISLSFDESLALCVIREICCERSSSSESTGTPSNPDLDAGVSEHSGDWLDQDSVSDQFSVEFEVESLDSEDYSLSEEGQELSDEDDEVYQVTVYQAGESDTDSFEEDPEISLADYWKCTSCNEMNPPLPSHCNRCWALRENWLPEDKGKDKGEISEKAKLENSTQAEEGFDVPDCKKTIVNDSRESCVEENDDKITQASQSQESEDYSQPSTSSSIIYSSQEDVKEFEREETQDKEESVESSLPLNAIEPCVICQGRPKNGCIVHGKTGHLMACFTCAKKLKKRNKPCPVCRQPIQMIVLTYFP
Experimental: (§1) 4 Intracellular bioluminescence resonance energy transfer (BRET) between NanoLuc-MDM2 and Cy5-labeled PMIγ in living cells. (A) Peptides were incubated on HEK293 and HEK293_CMKLR1-eYFP cells for 72 h before BRET was measured. To evaluate the receptor-specific effect, ΔBRET was calculated by subtracting netBRET of cells without CMKLR from netBRET from cells with CMKLR1. Mean ± SEM from three independent experiments performed in duplicate. […] (B) Calculated ΔBRET values after different incubation times of peptides on the cells. (C, D) Same as panels (A) and (B), but peptide uptake was competed by coincubation with 30 μM peptide 1 (N3-cC9). (E, F) Displacement of PMIγ peptides from MDM2 after 72 h internalization in a kinetic BRET measurement. After 3 min, 10 μM of the small molecule MDM2 antagonist Nutlin-3a was added and the loss of NanoLuc-MDM2/Cy5-PMIγ BRET was observed. Mean (bold line) ± SEM (dotted lines) from three independent experiments is shown. […]
Intracellular Cy5-PMIγ/NanoLuc-MDM2 bioluminescence resonance energy transfer […]
HEK293 and stably transfected HEK293_CMKLR1-eYFP cells were seeded at 15,000 cells per well into poly-ᴅ-lysine coated 96-well plates (white Nunc MicroWell, Thermo). The next day, cells in each well were transfected with 0.1 µg Transfection Carrier DNA (Promega) and 0.001 µg NanoLuc-MDM2 fusion vector (Promega) using Lipofectamine 3000 (Invitrogen) according to manufactures instructions. Cells were incubated overnight, washed, allowed to recover for 4 h, washed again and dilutions of the Cy5-labeled peptides were added to the cells and incubated for 24,48 or 72 h. For uptake competition experiments, 30 µM of the unlabeled peptide 1 (N3-cC9) were additionally added to each well. After the incubation, excess peptide was washed away thoroughly, and cells were incubated for 4 h before the cell culture medium was replaced by 50 µl Fluorobrite DMEM with Nano-Glo Live Cell Reagent (Promega). After 10 min incubation, luminescence was measured in a Spark multimode plate reader (Tecan), and BRET ratio was calculated by […]
dividing the Cy5-signal (670±30 nm) by the NanoLuc signal (450±20 nm). netBRET was calculated by subtracting the BRET ratio from cells which were incubated without peptide. To calculate the CMKLR1-specific effect, ΔBRET was calculated by subtracting the netBRET value obtained in cells without CMKLR1 from netBRET obtained in cells with CMKLR1. After the initial readout, a kinetic BRET displacement was performed with the same cells. For this, luminescence was measured every 22 s. After 3 min, 10 µM of the small molecule MDM2 antagonist Nutlin-3a (Sigma) was added to the cells and BRET was measured for another 7 min. Experiments were performed in technical duplicates and three independent times. Non-linear regression and statistical analysis were performed using Prism 10 (GraphPad).
Analogous to the intracellular Cy5-PMIγ/NanoLuc-MDM2 BRET experiment, HEK293 and HEK293_CMKLR1-eYFP cells were seeded and transfected with 0.09 µg Transfection Carrier DNA, 0.01 µg […]
were then incubated with dilutions of unlabeled PMIγ -peptides for 72 h or with Nutlin-3a for 24 h. During the last 30 min of the incubation, HaloTag TMR Ligand (Promega) was added to the cells to fluorescently label the p53-HaloTag fusion proteins in the cells. Cells were then washed thoroughly, incubated for 4 h in full cell culture medium without peptides, and the cell culture medium was then replaced by 50 µl Fluorobrite DMEM with Nano-Glo Live Cell Reagent. After 10 min incubation, luminescence was measured, and BRET ratio was calculated by dividing the TMR-signal (600±50 nm) by the NanoLuc signal (450±20 nm). netBRET was calculated and normalized to cells without peptide (100%) and cells which were not label ed with HaloTag TMR Ligand (0%). Experiments were performed in technical duplicates and at least twice. Non-linear regression and statistical analysis were performed using Prism 10 (GraphPad).

[2] = target: T2, NanoLuc-MDM2 in HEK293 cells (Homo sapiens, UniProt Q00987); assay: Intracellular Cy5-PMIγ/NanoLuc-MDM2 BRET, cells without CMKLR1; format: cell-based; settings: cells without CMKLR1, 72 h
T2 construct: host or cells: HEK293 and HEK293_CMKLR1-eYFP
T2 sequence (Q00987 whole entry): as above
Experimental: as §1, with “(N3-cC9).” for “(N3-cC9). (E, F) Displacement of PMIγ peptides from MDM2 after 72 h internalization in a kinetic BRET measurement. After 3 min, 10 μM of the small molecule MDM2 antagonist Nutlin-3a was added and the loss of NanoLuc-MDM2/Cy5-PMIγ BRET was observed. Mean (bold line) ± SEM (dotted lines) from three independent experiments is shown.”
HEK293 and stably transfected HEK293_CMKLR1-eYFP cells were seeded at 15,000 cells per well into poly-ᴅ-lysine coated 96-well plates (white Nunc MicroWell, Thermo). […] After 10 min incubation, luminescence was measured in a Spark multimode plate reader (Tecan), and BRET ratio was calculated by […]
dividing the Cy5-signal (670±30 nm) by the NanoLuc signal (450±20 nm). netBRET was calculated by subtracting the BRET ratio from cells which were incubated without peptide. To calculate the CMKLR1-specific effect, ΔBRET was calculated by subtracting the netBRET value obtained in cells without CMKLR1 from netBRET obtained in cells with CMKLR1. After the initial readout, a kinetic BRET displacement was performed with the same cells. […]

| Compound | cytotoxicity (HEK293_CMKLR1-eYFP cells) | cytosolic FCS measurement (MDA-MB-231 cells) | displacement from MDM2 by 10 μM nutlin-3a (kinetic BRET) ([1]; 1 μM extracellular peptide) | BRET between NanoLuc-MDM2 and Cy5-labeled peptide ([1]; 72 h) | receptor-specific BRET under uptake competition [1] | BRET between NanoLuc-MDM2 and Cy5-labeled peptide [2] | loss of BRET after 10 μM nutlin-3a, compared with 2Cy ([1]; 1 μM extracellular peptide, 72 h) | ΔBRET (netBRET with CMKLR1 minus without) ([1]; 24, 48 and 72 h) |
| --- | --- | --- | --- | --- | --- | --- | --- | --- |
| CC(=O)N[C@@H](CCCCn1cc(C[C@H](NC(=O)CCOCCOCCOCCNC(=O)[C@H](CCCNC(N)=O)NC(=O)[C@@H](NC(=O)[C@H](CCC(=O)O)NC(=O)CNC(=O)CNC(=O)[C@@H](CCCNC(=N)N)NC(=O)[C@@H](CC(C)C)NC(=O)[C@@H](CC(C)C)NC(=O)[C@@H](C)NC(=O)[C@@H](CCC(=O)O)NC(=O)[C@@H](Cc2ccccc2)NC(=O)[C@@H](C)NC(=O)[C@@H](CC(C)C)NC(=O)[C@H]2CCCN2C(=O)[C@@H](Cc2c[nH]c3ccccc23)NC(=O)[C@@H](Cc2c[nH]c3ccccc23)NC(=O)[C@@H](CC(=O)O)NC(=O)CCOCCOCCOCCNC(=O)CCCCC[N+]2=C(/C=C/C=C/C=C3N(C)c4ccc(S(=O)(=O)O)cc4C3(C)C)C(C)(C)c3cc(S(=O)(=O)[O-])ccc32)C(C)C)C(N)=O)nn1)C(=O)N[C@@H](Cc1ccc(O)cc1)C(=O)N[C@@H](Cc1ccccc1)C(=O)N1CCC[C@H]1C(=O)N[C@@H]1CCSSC[C@@H](C(=O)O)NC(=O)[C@H](Cc2ccccc2)NC(=O)[C@H](C)NC(=O)[C@H](Cc2ccccc2)NC(=O)[C@H](CCC(N)=O)NC1=O [2Cy] (I: {X2-PEG3}-[dD][dW][dW][dP][dL][dA][dF][dE][dA][dL][dL][dR]GGEV[Cit][PEG3][Pra]-NH2 / II: Ac-[Lys(N3)]YFP[d(hCys)]QFAFC-OH; triazole I:19-II:1; disulfide II:5-II:10) | no signs of cytotoxicity | no successful measurements were obtained | seen only in CMKLR1-expressing cells | significantly elevated BRET | almost no receptor-specific BRET was detected | only a minor signal |  |  |
| I: GSVSHHHHHHGGHHHH[PEG3][dK]([PEG3-X1])[dD][dW][dW][dP][dL][dA][dF][dE][dA][dL][dL][dR]GEV[Cit][PEG3][Pra]-NH2 / II: Ac-[Lys(N3)]YFP[d(hCys)]QFAFC-OH (triazole I:36-II:1; disulfide II:5-II:10) [3Cy] | tolerated slightly worse at concentrations above 1 μM | no successful measurements were obtained | seen only in CMKLR1-expressing cells | significantly elevated BRET | almost no receptor-specific BRET was detected | strong BRET at 10 μM | larger loss of BRET | slightly higher signal compared to 2Cy |
